The values that follow come from patent US11980598B2, “N-(2-(substituted-naphth-1-yl)ethyl) substituted amide compound, preparation and uses thereof” (BEIJING GREATWAY PHARMACEUTICAL TECHNOLOGY CO., LTD., priority 2017, dated 2024).

SMILES strings stand for the structures. Like-named read-outs stand apart in the source and are kept apart here.

Data set [1] deals with SD rats. The data set can be described thus: Anxiety behavior model of repeatedly administrated rat: O-maze test. It is filed as in vivo. Conditions: D21, 5 minutes. How it is done: The requirements for test animals, drug formulation and administration were the same as those of the rat chronic mild stress model.
Instruments: Vogel drinking anxiety device for rat and O-maze device for rat were manufactured by Shanghai XinRuan Company. The rat feeding chamber was a home-made white plastic box (60×45×25 cm).
The rats were administrated continuously by i.g. once a day. A novelty-suppressed feeding test, a Vogel drinking conflict test, and an O-maze test were performed on a different day, respectively. Each behavior test was performed at 9:00-12:00, and the administration time was 16:00-17:00. The test process was as follows: D12, novelty-suppressed feeding test (animals were fasted for 48 hours before the test); D18, Vogel drinking conflict test (animals were banned from water for 48 hours before the test); D21, O-maze test.
An O-maze device was placed in the center of a dark room and illuminated with an infrared light during the test. The animal was placed in the center of a closed arm of an O-maze track, timed for 5 minutes, and the activity of the rat in the maze was monitored by an infrared camera. Animals in each group were given a single intragastric administration 60 min before the test. Observation indicators were the number of times the rat entered the open arm and the accumulated dwell time in the open arm.

The test system of data set [2] is SD rats. The data set can be described thus: Forced rat swimming test. The following applies: 10 mg/kg i.g., 3 days, last 5 of 6 min. It is filed as in vivo. How it is done:
Animals: Kunming mice, male, body weight 18-22 g, SPF grade; SD rats, male, body weight 150-180 g, SPF grade. The test was carried out after acclimatization, and the animal was fasted for 12 hours before the test.
All drugs for the test were suspended and dispersed in a 1% aqueous solution of hydroxypropyl methylcellulose (HPMC), and shaken well before use. […] The doses for administration were all 10 mg/kg. For the concentration and volume for administration, see J Psychiatry Neurosci 2004; 29(2):126-133. The mice were intraperitoneally administered in a volume of 0.5 mL/20 g; and the rats were administered by i.g. in a volume of 2 mL/100 g.
Rats were randomly divided into groups according to weight balance. Rats were administered by i.g. for three consecutive days, once a day. One hour after administration on the third day, the forced swimming test was performed. The rats were placed in a round glass jar with a height of 40 cm, an inner diameter of 18 cm, a water depth of 23 cm, and a water temperature of 25° C. The rats were allowed to swim for 6 minutes, and the accumulated immobility time in the last 5 minutes was recorded.

Data set [3] in a line: In vivo metabolism study, rat oral/tail vein injection model. Conditions: for half-life: read-out: t½ (converted); for bioavailability: oral 5 mg/kg vs intravenous 0.5 mg/kg, dose conversion, read-out: F % (bioavailability). How it is done:
Male SD rats, weighing 200±20 g, SPF grade, were purchased from SPF Biotechnology Co., Ltd.
TSQ Quantum liquid chromatography-mass spectrometer (LC/MS/MS) from Finnigan Inc, USA, chromatography column: TSKgel Amide-80 column (2.0 mm I.D.×100 mm, 5 μm); mobile phase: acetonitrile-water-formic acid (50:50:0.1); flow rate: 0.2 mL/min; injection volume: 5 μL; column temperature: room temperature. Ionization source is electrospray ionization (ESI) with 4.8 KV of spray voltage; capillary temperature (TEM): 300° C.; sheath gas: N2, flow rate: 10 psi; auxiliary gas: N2, flow rate: 1 psi; collision gas (CID): Ar at a pressure of 1.5 mTorr. The mass spectrometry scanning method was selective reaction monitoring (SRM) and detected by positive ion method. The internal standard was a […] solution of aconitine in acetonitrile, the minimum limit of quantification was 5 ng/mL, and the correlation coefficient was >0.99.
Formulation of a solution for intravenous administration: approximately 5 mg of each test drug was accurately weighed, and dissolved in 50 μL of DMSO. To the solution was added an appropriate amount of 40% PEG400 aqueous solution to prepare a 0.5 mg/mL solution. The administration volume was 0.2 mL/200 g body weight, and the dose was 0.5 mg/kg body weight according to concentration conversion.
Formulation of a solution for i.g. administration: approximately 5 mg of each test drug was accurately weighed, and suspended and dispersed with a 1% aqueous solution of HPMC to prepare a 1 mg/mL suspension. The administration volume was 1 mL/200 g body weight, and the dose was 5 mg/kg body weight in terms of concentration according to concentration conversion.
Rats were randomly divided into 4 groups of 5 rats each. Oral gavage and tail vein administration were carried out according to the above dosages. At 2 min, 5 min, 15 min, 30 min, 1 h, 1.5 h, 2 h, and 3 h after administration, blood was collected from an orbit, and centrifuged at 8000 rpm for 10 min. 50 μL of plasma was weighed, and added with 50 μL of internal standard and 150 μL of acetonitrile. The mixture was mixed by shaking, and centrifuged at 18000 rpm for 10 min. The supernatant was taken for LC/MS/MS injection and determination. The determined data were analyzed using a DAS pharmacokinetic program to calculate the main pharmacokinetic parameters.

A word on the AUC(0-t): it is exposure summed from dosing to a finite time, without extrapolation to infinity. One may read the bioavailability as dose-corrected exposure relative to a reference, in per cent. With `COc1ccc2cccc(CCNC(C)=O)c2c1` [Agomelatine, reference compound], the figures for the “Dwell time in the open arm” value in data set [1] (10 mg/kg i.g.), in data set [1] (20 mg/kg i.g.) and in data set [1] (40 mg/kg i.g.) were 126 ± 15 s, 196 ± 30 s and 170 ± 29 s, respectively. The “Number of times entering the open arm” value in data set [1] (10 mg/kg i.g.) was 2.25 ± 0.4; in data set [1] (20 mg/kg i.g.), 3.1 ± 0.8; in data set [1] (40 mg/kg i.g.) it was 6.2 ± 1.0. Moreover, the Immobility time in data set [2] is reported as 73.5 ± 38.5 s. Moreover, the half-life in data set [3] (male, Sprague-Dawley (SD), plasma, intravenous injection 0.5 mg/kg) is 20.4 min; in data set [3] (male, Sprague-Dawley (SD), plasma, oral 5 mg/kg) it was 40.2 min. For the same molecule, the AUC(0-t) in data set [3] (male, Sprague-Dawley (SD), plasma, iv, 0.5 mg/kg, intravenous injection 0.5 mg/kg, read-out: AUC(0-t)) turned out to be 102 ng·h/mL; in data set [3] (male, Sprague-Dawley (SD), plasma, po, 5 mg/kg, oral 5 mg/kg, read-out: AUC(0-t)) it was 51.6 ng·h/mL; in data set [3] (oral 5 mg/kg), 51.57 ng·h/mL. In addition, the bioavailability in data set [3] (male, Sprague-Dawley (SD), plasma) is 5.05%.
On to `[2H]C([2H])([2H])Oc1cc2c(CCNC(C)=O)cccc2cc1Cl` [Example 1, N-(2-(6-chloro-7-deuteromethoxy-naphthalen-1-yl)ethyl)acetamide], for which the “Dwell time in the open arm” value in data set [1] (5 mg/kg i.g.) is 131 ± 30 s; in data set [1] (10 mg/kg i.g.), 201 ± 17 s; in data set [1] (20 mg/kg i.g.), 245 ± 6 s; in data set [1] (40 mg/kg i.g.) it was 171 ± 27 s. In addition, the “Number of times entering the open arm” value in data set [1] (5 mg/kg i.g.) is 4.8 ± 0.9; in data set [1] (10 mg/kg i.g.) it was 8.8 ± 0.9; in data set [1] (20 mg/kg i.g.), 10.89 ± 0.7; in data set [1] (40 mg/kg i.g.), 6.3 ± 1.1. The same molecule gave an Immobility time in data set [2] of 51.0 ± 32.4 s. For the same molecule, the half-life was 28.8 min in data set [3] (male, SD, plasma, intravenous injection 0.5 mg/kg) and 29.4 min in data set [3] (male, SD, plasma, oral 5 mg/kg). Also, the AUC(0-t) in data set [3] (male, SD, plasma, iv, 0.5 mg/kg, intravenous injection 0.5 mg/kg, read-out: AUC(0-t)) was 48.9 ng·h/mL; in data set [3] (male, SD, plasma, po, 5 mg/kg, oral 5 mg/kg, read-out: AUC(0-t)), 249 ng·h/mL; in data set [3] (oral 5 mg/kg), 248.83 ng·h/mL. Besides, the bioavailability in data set [3] (male, SD, plasma) is 50.9%.
